Converted amounts (≈) assume the structure as drawn. Like-named read-outs stand apart in the source and are kept apart here. Ends that are not written are not given here.
How the values were obtained:
C. tropicalis = experiment: Broth dilution antifungal susceptibility testing of yeasts (CLSI M27-A), MIC; assay type: cell-based, Candida tropicalis; settings: C. tropicalis strain ATCC750
Experimental: (§1) Broth Dilution Antifungal Susceptibility Testing
(§2) The sensitivity of relevant fungal strains to the peptides was determined using Clinical Laboratory Standard Institute (CLSI; formerly NCCLS) Approved Standards. Fungal susceptibility was tested using “Reference Method for Broth Dilution Antifungal Susceptibility Testing of Filamentous Fungi; Approved Standard M38-P”, and yeast susceptibility was tested using “Reference Method for Broth Dilution Antifungal Susceptibility Testing of Yeasts; Approved Standard—Second Edition M27-A”.

C. parapsilosis = assay type: cell-based, Candida parapsilosis
Experimental: as §1
The sensitivity of relevant fungal strains to the peptides was determined using Clinical Laboratory Standard Institute (CLSI; formerly NCCLS) Approved Standards. Fungal susceptibility was tested using “Reference Method for Broth Dilution Antifungal Susceptibility Testing of Filamentous Fungi; […];

C. albicans = assay type: cell-based, Candida albicans
Experimental: as §1
(§3) The sensitivity of relevant fungal strains to the peptides was determined using Clinical Laboratory Standard Institute (CLSI; formerly NCCLS) Approved Standards.

C. krusei = assay type: cell-based, Candida krusei
Experimental: as §1, §3

Malasezzia furfur = assay type: cell-based
Experimental: as §1, §3

Trichophyton rubrum = assay type: cell-based
Experimental: as §1, §3

Fusarium solani = experiment: Broth dilution antifungal susceptibility testing, MIC; assay type: cell-based; settings: Fusarium solani strain NCPF2877
Experimental: as §1, §2

[1] = test system: Scopulariopsis brevicaulis; experiment: as above; assay type: cell-based; settings: Scopulariopsis brevicaulis strain DM 2006 1025
Experimental: as §1, §2

Fusarium spp. = experiment: as above; assay type: cell-based; settings: Fusarium spp. strain DM 2006 1133
Experimental: as §1, §2

Penicillium spp. = experiment: as above; assay type: cell-based; settings: Penicillium spp. strain DM 2006 1285b
Experimental: as §1, §2

Alternaria spp. = experiment: as above; assay type: cell-based; settings: Alternaria spp. strain DM 2006 1218a
Experimental: as §1, §2

[2] = C. parapsilosis strain ATCC22019
[3] = C. parapsilosis strain ATCC90018
[4] = Candida spp. Type Strains MIC Data table, strain NCPF3953
[5] = Malasezzia furfur strain DSM6170

## CC(=O)N[C@@H](CCCNC(=N)N)C(=O)N[C@@H](CCCNC(=N)N)C(=O)N[C@@H](CCCNC(=N)N)C(=O)N[C@@H](CCCNC(=N)N)C(=O)N[C@@H](CCCNC(=N)N)C(=O)N[C@@H](CCCNC(=N)N)C(=O)N[C@@H](CCCNC(=N)N)C(=O)N[C@@H](CCCNC(=N)N)C(=O)N[C@@H](CCCNC(=N)N)C(=O)N[C@@H](CCCNC(=N)N)C(=O)N[C@@H](CCCNC(=N)N)C(=O)N[C@@H](CCCNC(=N)N)C(=O)N[C@@H](CCCNC(=N)N)C(N)=O [NP338]
C. tropicalis
  MIC: 2 µM (≈ 4.18 µg/mL)
C. parapsilosis; [2]
  MIC: 8 µM (≈ 16.7 µg/mL)
C. parapsilosis; [3]
  MIC: 128 µM (≈ 267 µg/mL)
C. albicans
  MIC, Candida albicans ATCC24433: 2 µM (≈ 4.18 µg/mL)
  MIC, Candida albicans ATCC90028: 4 µM (≈ 8.36 µg/mL)
  MIC, Candida albicans NCTC3179: 2 µM (≈ 4.18 µg/mL)
C. krusei; C. krusei strain ATCC6258
  MIC: 2 µM (≈ 4.18 µg/mL)
C. krusei; C. krusei strain NCPF3953
  MIC: 8 µM (≈ 16.7 µg/mL)
C. krusei; [4]
  MIC, Candida krusei NCPF3953: 8 µM (≈ 16.7 µg/mL)
Malasezzia furfur; [5]
  MIC: <15.6 µM

## RRVRRVRR [NP309]
C. albicans
  MIC, Candida albicans NCTC3179: >2000 µM
Trichophyton rubrum
  MIC: >2 µM

## RRVRR [NP303, RRVRR]
C. albicans
  MIC, Candida albicans NCTC3179: >2000 µM
Trichophyton rubrum
  MIC: >2 µM

## CC(=O)N[C@H](CCCNC(=N)N)C(=O)N[C@H](CCCNC(=N)N)C(=O)N[C@H](CCCNC(=N)N)C(=O)N[C@H](CCCNC(=N)N)C(=O)N[C@H](CCCNC(=N)N)C(=O)N[C@H](CCCNC(=N)N)C(=O)N[C@H](CCCNC(=N)N)C(=O)N[C@H](CCCNC(=N)N)C(=O)N[C@H](CCCNC(=N)N)C(=O)N[C@H](CCCNC(=N)N)C(=O)N[C@H](CCCNC(=N)N)C(=O)N[C@H](CCCNC(=N)N)C(=O)N[C@H](CCCNC(=N)N)C(N)=O [NP340, Ac-dRdRdRdRdRdRdRdRdRdRdRdRdR-NH2]
C. tropicalis
  MIC: 2 µM (≈ 4.18 µg/mL)
C. parapsilosis; [2]
  MIC: 2 µM (≈ 4.18 µg/mL)
C. parapsilosis; [3]
  MIC: 2 µM (≈ 4.18 µg/mL)
C. albicans
  MIC, Candida albicans ATCC90028: 2 µM (≈ 4.18 µg/mL)
C. krusei; C. krusei strain ATCC6258
  MIC: 4 µM (≈ 8.36 µg/mL)

## Poly-L-Lysine (MW 10-20 kDa) [NP108]
Fusarium solani
  MIC: 256 (μg/ml)
[1]
  MIC: 3.9 (μg/ml)
Fusarium spp.
  MIC: 125 (μg/ml)
Penicillium spp.
  MIC: 31.2 (μg/ml)
Alternaria spp.
  MIC: 62.5 (μg/ml)

## RVRVR [NP301, RVRVR]
C. albicans
  MIC, Candida albicans NCTC3179: >2000 µM
Trichophyton rubrum
  MIC: >2 µM

## RRVRVRR [NP307, RRVRVRR]
C. albicans
  MIC, Candida albicans NCTC3179: >2000 µM
Trichophyton rubrum
  MIC: >2 µM

## Poly-L-Arginine (MW 5-15 kDa) [NP121]
Fusarium solani
  MIC: 7.8 (μg/ml)
[1]
  MIC: 3.9 (μg/ml)
Fusarium spp.
  MIC: 156 (μg/ml)
Penicillium spp.
  MIC: 15.6 (μg/ml)
Alternaria spp.
  MIC: 13.2 (μg/ml)

## CC(C)[C@H](NC(=O)[C@H](CCCNC(=N)N)NC(=O)[C@H](CCCNC(=N)N)NC(=O)[C@H](CCCNC(=N)N)NC(=O)[C@@H](N)CCCNC(=N)N)C(=O)N[C@H](C(=O)N[C@@H](CCCNC(=N)N)C(=O)N[C@@H](CCCNC(=N)N)C(=O)N[C@@H](CCCNC(=N)N)C(=O)N[C@@H](CCCNC(=N)N)C(=O)O)C(C)C [NP310]
C. albicans
  MIC, Candida albicans NCTC3179: >2000 µM
Trichophyton rubrum
  MIC: >2 µM

## RRRVRRR [NP306, RRRVRRR]
C. albicans
  MIC, Candida albicans NCTC3179: >2000 µM
Trichophyton rubrum
  MIC: >2 µM

## RRVVRR [NP305, RRVVRR]
C. albicans
  MIC, Candida albicans NCTC3179: >2000 µM
Trichophyton rubrum
  MIC: >2 µM

## N=C(N)NCCC[C@H](NC(=O)[C@H](CCCNC(=N)N)NC(=O)[C@H](CCCNC(=N)N)NC(=O)[C@H](CCCNC(=N)N)NC(=O)[C@H](CCCNC(=N)N)NC(=O)[C@H](CCCNC(=N)N)NC(=O)[C@H](CCCNC(=N)N)NC(=O)[C@H](CCCNC(=N)N)NC(=O)[C@H](CCCNC(=N)N)NC(=O)[C@H](CCCNC(=N)N)NC(=O)[C@@H](N)CCCNC(=N)N)C(=O)O [NP317]
C. parapsilosis
  MIC: 256 µM (≈ 444 µg/mL)
C. albicans
  MIC, Candida albicans NCTC3179: 512 µM (≈ 889 µg/mL)
C. krusei
  MIC, Candida krusei NCPF3953: 32 µM (≈ 55.6 µg/mL)
Trichophyton rubrum
  MIC: 0.25 µM (≈ 0.434 µg/mL)
Malasezzia furfur
  MIC: <15.6 µM

## RRRVVRRR [NP308]
C. albicans
  MIC, Candida albicans NCTC3179: >2000 µM
Trichophyton rubrum
  MIC: >2 µM

## Poly-L-Lysine (MW 0.5-2 kDa) [NP112]
Malasezzia furfur; [5]
  MIC: 512 (μg/ml)

## N=C(N)NCCC[C@H](NC(=O)[C@H](CCCNC(=N)N)NC(=O)[C@H](CCCNC(=N)N)NC(=O)[C@H](CCCNC(=N)N)NC(=O)[C@H](CCCNC(=N)N)NC(=O)[C@H](CCCNC(=N)N)NC(=O)[C@H](CCCNC(=N)N)NC(=O)[C@H](CCCNC(=N)N)NC(=O)[C@H](CCCNC(=N)N)NC(=O)[C@H](CCCNC(=N)N)NC(=O)[C@H](CCCNC(=N)N)NC(=O)[C@H](CCCNC(=N)N)NC(=O)[C@@H](N)CCCNC(=N)N)C(=O)O [NP337]
C. tropicalis
  MIC: 2 µM (≈ 4.1 µg/mL)
C. parapsilosis; [2]
  MIC: 32 µM (≈ 65.6 µg/mL)
C. parapsilosis; [3]
  MIC: 128 µM (≈ 262 µg/mL)
C. albicans
  MIC, Candida albicans ATCC24433: 2 µM (≈ 4.1 µg/mL)
  MIC, Candida albicans ATCC90028: 4 µM (≈ 8.19 µg/mL)
  MIC, Candida albicans NCTC3179: 2 µM (≈ 4.1 µg/mL)
C. krusei; C. krusei strain ATCC6258
  MIC: 2 µM (≈ 4.1 µg/mL)
C. krusei; C. krusei strain NCPF3953
  MIC: 16 µM (≈ 32.8 µg/mL)
C. krusei; [4]
  MIC, Candida krusei NCPF3953: 16 µM (≈ 32.8 µg/mL)
Malasezzia furfur; [5]
  MIC: 31.25 µM (≈ 64 µg/mL)

## RRVVR [NP302, RRVVR]
C. albicans
  MIC, Candida albicans NCTC3179: >2000 µM
Trichophyton rubrum
  MIC: >2 µM

## RRVRVR [NP304, RRVRVR]
C. albicans
  MIC, Candida albicans NCTC3179: >2000 µM
Trichophyton rubrum
  MIC: >2 µM

## N=C(N)NCCC[C@H](NC(=O)[C@H](CCCNC(=N)N)NC(=O)[C@H](CCCNC(=N)N)NC(=O)[C@H](CCCNC(=N)N)NC(=O)[C@H](CCCNC(=N)N)NC(=O)[C@H](CCCNC(=N)N)NC(=O)[C@H](CCCNC(=N)N)NC(=O)[C@H](CCCNC(=N)N)NC(=O)[C@H](CCCNC(=N)N)NC(=O)[C@H](CCCNC(=N)N)NC(=O)[C@H](CCCNC(=N)N)NC(=O)[C@H](CCCNC(=N)N)NC(=O)[C@@H](N)CCCNC(=N)N)C(=O)O [NP318]
C. parapsilosis; [2]
  MIC: 256 µM (≈ 524 µg/mL)
C. albicans
  MIC, Candida albicans NCTC3179: 4 µM (≈ 8.19 µg/mL)
C. krusei; C. krusei strain ATCC6258
  MIC: <16 µM
C. krusei; C. krusei strain NCPF3953
  MIC: 8 µM (≈ 16.4 µg/mL)
C. krusei; [4]
  MIC, Candida krusei NCPF3953: 8 µM (≈ 16.4 µg/mL)
Trichophyton rubrum; Trichophyton rubrum strain NCPF118
  MIC: >2 µM
Malasezzia furfur; [5]
  MIC: 62.5 µM (≈ 128 µg/mL)

## RRWRRWRR [NP328]
C. albicans
  MIC, Candida albicans ATCC24433: 1024 µM
  MIC, Candida albicans ATCC90028: 1024 µM
  MIC, Candida albicans NCTC3179: 1024 µM
C. krusei
  MIC: 128 µM
  MIC, Candida krusei NCPF3953: 128 µM
